We go through 2 compounds from paper PMC5914052, “ATR kinase inhibitors NVP-BEZ235 and AZD6738 effectively penetrate the brain after systemic administration” (Radiation Oncology (London, England), 2018).

The subject of one series is PI3K/mTOR pathway. The following applies: cited from earlier work; for IC50: in cells.
The nature of series [1]: Brain histopathology (H/E) of tumor-bearing mice treated with ATRi+IR. As to conditions: H/E staining at d88.
Method: (§1) Briefly, NOD/SCID mice (4–5 weeks old; Ospedale Policlinico San Martino Animal Facility) were anesthetized with i.m. ketamine and xylazine. Thereafter, the animals were positioned into a stereotaxic frame (David Kopf instruments) and a hole was made using a 21-gauge needle, 2.5 mm lateral and 1 mm anterior from the intersection of the coronal and sagittal sutures (bregma). 0.5 × 10^6 COMI GIC were injected into the left corpus striatum. Animals were observed daily for neurological symptoms and when moribund were euthanized by CO2 asphyxiation. For tumor analysis, animals were euthanized and brains were fixed and stained with hematoxylin/eosin (H/E) or an anti-nestin mouse monoclonal primary antibody followed by a FITC-conjugated goat anti-mouse secondary IgG.
(§2) This combined (ATRi+IR) treatment was repeated two more times at d23 and d24.
(§3) This treatment was repeated at d23 and d24.
A short description of series [2]: Pharmacokinetics after i.p. delivery: blood and brain concentration by HPLC/MS. The following applies: 25 mg/Kg i.p.; for concentration at 1 h / concentration at 2 h / concentration at 6 h / concentration at 8 h: mouse, ip, tumor-free CD-1 mice. Format: in vivo, CD-1 mice. As for the experimental part: Tumor-free 8-weeks old CD-1 mice (Envigo, http://www.envigo.com) were inoculated i.p. with 25 mg/Kg body weight of NVP-BEZ235 or AZD6738. 1, 2, 6 and 8 h later, blood was collected by retro-orbital bleeding after which the mice were euthanized by CO2 asphyxiation and the brains explanted. Blood and brain samples were then extracted and NVP-BEZ235 and AZD6738 concentrations determined by High Performance Liquid Chromatography (HPLC)/mass spectrometry (MS) as described.
The biodistribution and pharmacokinetics of these ATRi, in particular the concentration reached in the brain after i.p. delivery, is crucial to determine optimal tumor radio-sensitization conditions in vivo. The presence of genuine NVP-BEZ235 and AZD6738 in the mouse blood and brain after i.p. delivery was investigated using HPLC/MS. Figure 1a and 1c show the isotopic patterns of NVP-BEZ235 and AZD6738 respectively, as determined by MS. A logarithmic relationship was found between abundance of NVP-BEZ235 (Fig. 1b) and AZD6738 (Fig. 1d) (expressed in arbitrary units) and their concentrations. For both NVP-BEZ235 and AZD6738, the Limit of Quantitation (LoQ) was 10 × 10^− 9 M. Tumor-free mice were inoculated i.p. with 25 mg/Kg body weight of NVP-BEZ235 (Fig. 1f) or AZD6738 (Fig. 1i). Mouse ID numbers are indicated at the top of Fig. 1f and I for the sake of reference. Blood samples were then withdrawn retro-orbitally after 1, 2, 6 and 8 h (Fig. 1g and k). Immediately after blood sampling, the animals were euthanized and their brains removed (Fig. 1e and h). All samples were homogenized and extracted concomitantly and its ATRi content determined by HPLC/MS. […] This value returned close to the LoQ (12 × 10^− 9 M) 8 h after the i.p. delivery (Fig. 1e).
Fig. 1 Pharmacokinetics of ATRi studied by HPLC/MS in positive polarity. a Isotopic pattern of NVP-BEZ235. b Relationship between HPLC/MS-determined abundance and concentration of NVP-BEZ235. The limit of quantitation (LoQ) was 10 × 10^− 9 M. c Isotopic pattern of AZD6738. d Relationship between HPLC/MS-determined abundance and concentration of AZD6738. The limit of quantitation (LoQ) was 10 × 10^− 9 M. e-g BBB crossing by NVP-BEZ235. Tumor-free mice were inoculated i.p. with 25 mg/Kg body weight of NVP-BEZ235 (f). At the indicated times [T (h)] blood was withdrawn retroorbitally for plasma isolation and analysis (g). Mice were then euthanized and the brains explanted (e). All blood and brain samples were then resuspended in water/methanol, homogenized, centrifuged and the supernatant determined for its NVP-BEZ235 concentration using HPLC/MS as described under Methods and Materials. Concentration values (× 10^− 9 M) are shown at the top of (e) and (g) and illustrated at half-panel by the area of a colored triangle. S.D. of values determined by this procedure is on average ± 31%. Mouse ID numbers are shown at the top of F for the sake of reference. h-k As in E-G but with AZD6738 TEXT PRINTED IN THE PICTURE: (e) NVP-BEZ235: [NVP-BEZ235] x 10^-9 M: 36 (T (h): 1; Brain); [NVP-BEZ235] x 10^-9 M: 111 (T (h): 2; Brain); [NVP-BEZ235] x 10^-9 M: 44 (T (h): 6; Brain); [NVP-BEZ235] x 10^-9 M: 12 (T (h): 8; Brain) | (g) NVP-BEZ235: [NVP-BEZ235] x 10^-9 M: 146 (T (h): 1; Blood); [NVP-BEZ235] x 10^-9 M: 32 (T (h): 2; Blood); [NVP-BEZ235] x 10^-9 M: 28 (T (h): 6; Blood); [NVP-BEZ235] x 10^-9 M: 12 (T (h): 8; Blood) | (h) AZD6738: [AZD6738] x 10^-9 M: 480 (T (h): 1; Brain); [AZD6738] x 10^-9 M: 380 (T (h): 2; Brain); [AZD6738] x 10^-9 M: 80 (T (h): 6; Brain); [AZD6738] x 10^-9 M: 9 (T (h): 8; Brain) | (k) AZD6738: [AZD6738] x 10^-9 M: 760 (T (h): 1; Blood); [AZD6738] x 10^-9 M: 1480 (T (h): 2; Blood); [AZD6738] x 10^-9 M: 140 (T (h): 6; Blood); [AZD6738] x 10^-9 M: 40 (T (h): 8; Blood)

Series [3] deals with COMI GIC-driven orthotopic GB. As to conditions: for Effect on survival of irradiated animals: 25 mg/Kg i.p. + 0.5 Gy IR, three consecutive days, versus vehicle+IR; for Median animal survival: 25 mg/Kg i.p. followed 4 h later by 0.5 Gy IR to the head, at d22, d23 and d24, vehicle (DMSO)+IR 99 days.
Method: Briefly, a surgery-derived tumor specimen was obtained, after informed consent, from a patient with diagnosis of GB, WHO grade IV. The tumor specimen was collected on ice and immediately processed for isolation of GIC according to Svendsen et al [10] Cells were grown in proliferation medium containing EuroMed-N/DMEM/F-12 (Euroclone) and B27 supplement w/o Vitamin A (1:50; Life Technologies), recombinant human FGF-2 (10 ng/mL; Peprotech), and recombinant human EGF (20 ng/mL; Peprotech). Under these conditions, the cells attach and grow as a monolayer in flasks and maintain intact self-renewal capacity for at least 3 months. […] In order to avoid significant subpopulation selection during prolonged cell culture, COMI GIC samples cultured for no more than two months after post-surgery isolation were used for orthotopic tumor development.
Development and characterization of COMI GIC-driven orthotopic GBs have been previously described [7–9]. Briefly, NOD/SCID mice (4–5 weeks old; Ospedale Policlinico San Martino Animal Facility) were anesthetized with i.m. ketamine and xylazine. Thereafter, the animals were positioned into a stereotaxic frame (David Kopf instruments) and a hole was made using a 21-gauge needle, 2.5 mm lateral and 1 mm anterior from the intersection of the coronal and sagittal sutures (bregma). 0.5 × 10^6 COMI GIC were injected into the left corpus striatum. Animals were observed daily for neurological symptoms and when moribund were euthanized by CO2 asphyxiation. For tumor analysis, animals were euthanized and brains were fixed and stained with hematoxylin/eosin (H/E) or an anti-nestin mouse monoclonal primary antibody followed by a FITC-conjugated goat anti-mouse secondary IgG.
Whole brain RT of animals bearing orthotopic COMI GB was performed under animal anesthesia obtained by an isoflurane inhalation anesthesia apparatus. Irradiation was performed by an RS 2000 Biological Irradiator (Rad Source Technologies, Alpharetta, GA, USA) equipped with a collimator directing a parallel beam of X-radiation to the head only. The prescription dose was 0.5 Gy. Under those conditions, virtually no radiation to the rest of the body was delivered. The radiation doses were verified by a RadCal Accu-Gold system (Monrovia, CA, USA) equipped with a 10X6–0.6 High Dose Rate Chamber and confirmed by two radiochromic films (Gafchromic® EBT3, Ashland Inc., Covington, KY, USA) placed over and under the mouse body. RT was administered 4 h after each ATRi administration.
Seven mice per treatment group were used. Kaplan-Meier survival curves were compared by both log-rank (Mantel-Cox) and Gehan-Breslow-Wilcoxon tests. The GraphPad Prism 5.01 statistical software was used.
as §2
The next series deals with ATR. The following applies: in cells, cited from earlier work.
For series [4] the following is noted: mouse, in vivo.
Method: as §1, §2, §3
Series [5] in a line: Tolerability of NVP-BEZ235 doses above 25 mg/Kg in animals. Format: in vivo. As to conditions: our animals, data not shown. The source says:
Gil del Alcazar and coworkers have described radiosensitization of orthotopic GB by NVP-BEZ235 using the established glioma cell line U87 [15]. The U87-driven tumors yet poorly mimic the infiltrative and neovascularization growth properties of clinical GB [17]. Further, the U87 cell line was recently reported to represent a mix-up with another cell line. In order to investigate the radiosensitization properties of NVP-BEZ235 towards orthotopic GB driven by primary GIC that more faithfully mimic the clinical tumors growth, [17] we preliminarily investigated the pharmacokinetics of NVP-BEZ235 using HPLC/MS. […] The early termination of recent NVP-BEZ235 clinical trials due to elevated toxicity may confirm that safety dosing of NVP-BEZ235 should be thoroughly investigated prior to use. […] (Fig. 1e). […] NVP-BEZ235 can diffuse to brain tissues at pharmacologically active levels after systemic administration, albeit the presence of the efflux ABC-transporters (in particular ABCG2) at the BBB may in part restrict its brain penetration. In a preliminary tumor radiosensitization study, we then developed primary adult COMI tumors in NOD SCID mice, whose immunodeficient phenotype is required for reproducible engraftment in virtually 100% of mice (Fig. 2a). […]

Series [6] relates to orthotopic xenograft models of GB. Further details: method as in PMID 27542970. As to conditions: nude rats and NOD/SCID mice; cited from earlier work.
[7] abbreviates: brain, read-out: Brain concentration.
[8] abbreviates: plasma, read-out: Blood concentration.

Molecules are shown by their SMILES. Read-outs that look alike come from different tables or passages of the source. Where only a bound is given, the exact number is not on record here.

Consider `C[C@@H]1COCCN1c1cc(C2([S@](C)(=N)=O)CC2)nc(-c2cc[nH]c3nccc2-3)n1` [AZD6738], for which, in the series on PI3K/mTOR pathway, the “Inhibition of related kinases in the PI3K/mTOR pathway” value is reported as “does not inhibit significantly”. Also, in series [1], the “Brain histology variation versus DMSO+IR” value is recorded as “No significant histology variations”. The “Brain concentrations achievable after i.p. administration relative to NVP-BEZ235” value in series [2] (AZD6738 versus NVP-BEZ235) was […]. In addition, in series [2] (setting [7]), the concentration at 1 h amounted to 480 nM, the concentration at 2 h was 380 nM, the concentration at 6 h turned out to be 80 nM and the concentration at 8 h amounted to 9 nM. In series [2] (setting [8]), the concentration at 1 h was determined as 760 nM, the concentration at 2 h worked out at 1480 nM, the concentration at 6 h amounted to […] and the concentration at 8 h was […]. Further, in series [3], the “Effect on survival of irradiated animals” value was “could not observe any survival improvement” and the Median animal survival was 101 days. Further, in the series on ATR (read-out: IC50 for ATR kinase inhibition in cells), the IC50 was […].

Turning to `Cn1c(=O)n(-c2ccc(C(C)(C)C#N)cc2)c2c3cc(-c4cnc5ccccc5c4)ccc3ncc21` [NVP-BEZ235], the IC50 with PI3K/mTOR pathway (S473-Akt, read-out: Concentration giving 50% reduction of S473-Akt levels in cells) is 8 nM. Further, the IC50 with PI3K/mTOR pathway (T308-Akt, read-out: Concentration giving 50% reduction of T308-Akt levels in cells) was 30 nM. Also, the “Brain histology variation versus DMSO+IR” value in series [4] is “No significant histology variations”. The “Decrease of blood concentration from 1 h to 2 h” value in series [2] (1 h versus 2 h) is listed as > 4 fold. In series [2] (setting [7]), the concentration at 1 h came out at 36 nM, the concentration at 2 h is 111 nM, the concentration at 6 h turned out to be 44 nM and the concentration at 8 h stood at 12 nM. Moreover, in series [2] (setting [8]), the concentration at 1 h was 146 nM, the concentration at 2 h was 32 nM, the concentration at 6 h was found to be 28 nM and the concentration at 8 h was 12 nM. Also, in series [3], the “Effect on survival of irradiated animals” value was “no elongation of median survival” and the Median animal survival turned out to be 86 days. Moreover, the IC50 in the series on ATR (read-out: IC50 for ATR inhibition in cells) was 21 nM. In addition, the “Toxicity of doses higher than 25 mg/Kg i.p.” value in series [5] is “significant toxicity”. Besides, in series [6], the “Side effects of doses higher than 25 mg/Kg” value was “severe side effects” and the “Survival benefit or inhibition of tumour growth” value is “no survival benefit or inhibition of tumour growth”.
